# Columns and labels:
# [1] = tested on: cyclopentadecanone monooxygenase (CPDMO); assay: Spectro-photometric activity assay (NADPH consumption at 340 nm), cell-free lysate containing CPDMO; type: biochemical, Pseudomonas species; details: 0.25 mM Globanone, 0.3 mM NADPH, pH 9.0, 30° C.
# Excerpt: (§1) The genes for the two Baeyer-Villiger Monooxygenases (BVMOs) cyclopentadecanone monooxygenase from a Pseudomonas species (CPDMO, Iwaki, H. et al., Appl. Environ. Microbiol. (2006), 72 (4): 2707-2720) and cyclododecanone monooxygenase from a Rhodococcus species (CDMO, Kostichka, K. et al., J. Bacteriol. (2001), 183 (21): 6478-6486) were cloned using standard molecular biology tools. For recombinant enzyme production in Escherichia coli an L-arabinose inducible vector derived from a pBAD plasmid carrying a kanamycin/neomycin resistance gene was used in an E. coli K-12 strain, in which the Larabinose catabolism is disrupted. Glycerol stocks were used to inoculate 5 ml overnight cultures (LB, 100 μg/ml neomycin). […]
# (§2) Protein concentrations of the lysates were determined to calculate specific activities (Protein determination by Bradford). The concentrations of total protein in the cell-free extracts (CFEs) were determined using a modified protein-dye binding method as described by Bradford in Anal. Biochem. 72: 248-254 (1976).
# (§3) To determine if the two BVMOs were active on Globanone® a spectro-photometric activity assay was applied. The assay makes use of the strong absorbance decrease at 340 nm upon consumption of the NADPH cofactor. […] The decrease of absorbance was followed for 3 minutes before substrate addition to detect potential, unspecific NADPH oxidation. […]
# [2] = tested on: cyclododecanone monooxygenase (CDMO); assay: Spectro-photometric activity assay (NADPH consumption at 340 nm), cell-free lysate containing CDMO; type: biochemical, Rhodococcus species; details: 0.25 mM Globanone, 0.3 mM NADPH, pH 9.0, 30° C.
# Excerpt: as §1, §2, §3
structure (smiles),measurement,setting,value
O=C1CCCCCCC=CCCCCCCC1 [Globanone®],volumetric activity,[1]; E. coli cell-free lysate containing CPDMO (9.9 mg/ml protein),0.04 U/ml
same,specific activity,"[1]; per mg total cell-free lysate protein, CPDMO lysate",0.004 U/mg
same,volumetric activity,[2]; E. coli cell-free lysate containing CDMO (18.6 mg/ml protein),3.71 U/ml
same,specific activity,"[2]; per mg total cell-free lysate protein, CDMO lysate",0.20 U/mg

# From US20260028654A1, “BIOTECHNOLOGICAL PRODUCTION OF MACROCYCLIC LACTONES” (SYMRISE AG, priority 2022, published 2026)
